Measurements: patent publication US7432045B2 (priority 2003, dated 2008)
Read-outs that look alike come from different tables or passages of the source. Peptide text beside a SMILES is read from it.

How the values were obtained:
HSV-1 KOS mutant hrR3 [1] = system: HSV-1 KOS mutant hrR3
hrR3 virions = experiment: Inactivation of virions in solution; format: cell-based, HSV-1; details: 37° C.
Experimental: Inactivation of virions: To assess the ability of peptides to inactivate virions, 3-4×10^6 pfu/mL of virus was mixed on ice with peptide in serum-free DMEM and incubated for 1 h at 4 or 37° C. Aliquots (10 μL) were diluted 1000-fold into peptide-free serum-supplemented DMEM at 23° C. and 50 μL aliquots were assayed in triplicate for infectivity in Vero cell cultures (dilution assay). Alternatively, 10 μL aliquots were diluted into 1 mL of ice-cold peptide-free serum-supplemented DMEM and the virus was pelleted as described above (centrifugation assay). Viral pellets were then resuspended in 250 μL serum-supplemented DMEM and 50 μL aliquots were assayed in triplicate for infectivity in Vero cell cultures.
Some of the virus diluted without the addition of NaCl was pelleted immediately (Control), while the rest of the diluted virus was stored at 4° C. and pelleted 19 h later. The virus was pelleted and assayed for infectivity as described in Example 1.

H5 Avian Influenza virus = details: dog
hrR3 [2] = details: read-out: IC50, infection in presence of peptide with peptide treated virions
HSV-1 KOS = details: depending on concentration
HSV-1 KOS mutant hrR3 [3] = details: 25 μM peptide
HSV-1 KOS mutant hrR3 [4] = details: read-out: IC50 (lacZ+ cells)
HSV-1 KOS virions = experiment: Electron microscopy of peptide-treated virus (aggregation)
Experimental: Electron microscopy: Purified HSV-1 KOS virions (2.5×10^7 pfu/mL) according to Visalli et al., Virus Res. 29:167 (1993) were treated with 25 μM antiviral peptide SEQ ID NO:1 or the control peptide EBX (SEQ ID NO:17) in 40 μL serum-free DMEM buffered with 25 mM Hepes (pH 7.4) for 5 to 60 min at 4 or 23° C. Aliquots (10 μL) were adsorbed to pioloform poly-L-lysine-coated grids for 5 min at 23° C. Grids were rinsed with PBS, stained with 2% phosphotungstic acid (PTA) in water adjusted to pH ˜6, and air dried. Alternatively, virus was pre-adsorbed to grids and treated with peptides thereafter. A total of 4×10^9 pfu/mL of purified HSV-1 KOS in 5 μL PBS was applied to the coated grids for 5 min at 23° C., and the grids were rinsed once with serum-free DMEM buffered with 25 mM Hepes (pH 7.4) and treated with 15 μL of 5 mM EB or EBX in the same medium for 30 min at 37° C. The pH of highly concentrated solutions of antiviral peptide SEQ ID NO:1 and EBX was re-adjusted to 7.4 with NaOH prior to use. To prevent evaporation of the peptide-containing solutions, each grid was held in a Hiraoka flexible staining plate and covered with a miniature bell jar made from an 0.5 mL polypropylene micro-centrifuge tubes, small enough for the 15 μL to fill half of the bell jar facing the coated surface of the grid. The entire assembly was then incubated in a moist chamber for 30 min at 37° C. […]

hrR3 [5] = experiment: Virucidal assay; format: cell-based, HSV-1
Experimental: […] The treated virus was diluted 200-fold with serum-supplemented DMEM and assayed for infectivity approximately 1 hour later in microtiter wells seeded with Vero cells (3.5×10^4 cells/well) 1 d earlier. Forty or 100 microliter volumes of diluted virus were adsorbed for 1 or 2 h at 37° C. and lacZ^+ cells were scored 8 hours later. In some experiments, aliquots of diluted virus were first dialyzed (Spectra/Por; MWCO 12-14,000) overnight at 4° C. against a 60-fold excess volume of Hepes-buffered serum-supplemented DMEM or forced by syringe through 0.22 μm membranes (Millex-GV; Millipore) before the remaining infectious virus was assayed.

In the case of `N=C(N)NCCC[C@H](NC(=O)CN)C(=O)N[C@@H](CCCCN)C(=O)N[C@@H](CCCCN)C(=O)N[C@@H](CCCNC(=N)N)C(=O)N[C@@H](CCCNC(=N)N)C(=O)N[C@@H](CCC(N)=O)C(=O)N[C@@H](CCCNC(=N)N)C(=O)N[C@@H](CCCNC(=N)N)C(=O)N[C@@H](CCCNC(=N)N)C(=O)N[C@@H](CS)C(=O)O` [TAT-C, NH2-GRKKRRQRRRC-COOH], the “inhibitory effect after 1 h at 32° C.” value (HSV-1 KOS mutant hrR3 [1]; 10 or 100 μM peptide) is reported as “about 90%”, the “virus internalized after cultures were rinsed and shifted to 37° C.” value (HSV-1 KOS mutant hrR3 [1]; 10 or 100 μM peptide) is reported as 25-33% and the “reversibility of the inhibitory effect after removal of peptide” value (HSV-1 KOS mutant hrR3 [1]; n50,51TAT-C 10 μM, TAT-C 10 or 100 μM) is reported as “largely irreversible”. For the same molecule, the IC50 (hrR3 virions; dilution or centrifugation, read-out: inactivation of virions IC50) was roughly 75 µM and the IC50 (hrR3 virions; read-out: Inactivation of Virions 37° C. IC50) was 100 µM.

Work on `CC(C)C[C@H](NC(=O)[C@H](C)NC(=O)[C@H](CC(C)C)NC(=O)[C@H](CC(C)C)NC(=O)[C@@H](NC(=O)[C@H](C)NC(=O)[C@@H]1CCCN1C(=O)[C@H](CC(C)C)NC(=O)[C@H](CC(C)C)NC(=O)[C@H](C)NC(=O)[C@@H](NC(=O)[C@H](C)NC(=O)[C@H](C)NC(=O)[C@H](CCCCN)NC(=O)[C@H](CCCCN)NC(=O)[C@H](CCCNC(=N)N)NC(=O)[C@@H](N)CCCNC(=N)N)C(C)C)C(C)C)C(=O)N[C@@H](CC(C)C)C(=O)N[C@@H](C)C(=O)N1CCC[C@H]1C(=O)O` [EB] (H-RRKKAAVALLPAVLLALLAP-OH) yielded an IC50 (H5 Avian Influenza virus) of 0.5 µM, an IC50 (hrR3 [2]; cells pretreated with peptide) of 0.9 µM and an IC50 (hrR3 [2]; non-pretreated cells) of 1.7 µM. For the same molecule, the “reduction of virus yields” value (HSV-1 KOS) was “up to eight orders of magnitude”, the “effect on development of lacZ+ cells when added immediately after citrate treatment” value (HSV-1 KOS mutant hrR3 [3]) was “no longer had any effect” and the IC50 (HSV-1 KOS mutant hrR3 [4]; virus input 19 pfu/well) was 0.66 µM. For the same molecule, the IC50 (HSV-1 KOS mutant hrR3 [4]; virus input 210 pfu/well) was 1.2 µM, the IC50 (HSV-1 KOS mutant hrR3 [4]; virus input 5700 pfu/well) was 11 µM and the “concentration at which cytotoxic effects were seen first” value (Vero cells) was 200 µM. The “cytotoxic effects (trypan blue) in cellular resistance experiments” value (Vero cells) was “No cytotoxic effects”, the “aggregation of virus particles” value (HSV-1 KOS virions; 25 μM peptide) was “nearly all of the particles were seen in relatively few large aggregates” and the “time of aggregate formation” value (HSV-1 KOS virions; room temperature as well as 4° C.) was less than 5 min. The “reversibility of virion inactivation by overnight dialysis” value (hrR3 [5]) was “irreversibly inactivated”, the IC50 (hrR3 [5]; 4° C., read-out: Virucidal Activity 4° C. IC50) was 89 µM and the IC50 (hrR3 [5]; first experiment, FIG. 8A, read-out: inhibition of infectivity of virions IC50) was 44 µM. The IC50 (hrR3 [5]; second experiment, FIG. 8B, read-out: inhibition of infectivity of virions IC50) was 69 µM.
